Experimental data taken from US20240027453A1, “METHOD FOR DETECTION AND QUANTITATIVE MONITORING OF INFECTIONS WITH HERPESVIRUSES” (The Trustees of Princeton University, priority 2020, published 2024).
Where two headings read alike, the source gives them in different places.

Test system: HCMV
Type: cell-based
Details: for IRS1 (P09715) protein level / TRS1 (P09695) protein level / UL13 (P16755) protein level / UL36 (P16767) protein level / UL37 (P16778) protein level / UL122 (P19893) protein level / UL123 (P13202) protein level: IE
Procedure: In example herpesvirus PRM assay methods shown herein, cell pellets were lysed in 2% SDS, 100 mM NaCl, 0.5 mM EDTA, 50 mM Tris, pH 8.2, and 50 μg of protein was reduced and alkylated with 25 mM TCEP and 50 mM CAM respectively for 20 min at 70° C. Proteins were then precipitated via methanol chloroform precipitation (Wessel & Flugg, Anal Biochem. 138(1):141-143, 1984), resuspended in 50 mM HEPES, pH 8.2 and digested overnight with trypsin (50:1 protein:enzyme w/w ratio). Digested peptides were desalted by SDB-RPS StageTip as previously described (Lum et al., Cell Syst., 7(6):[…], 2018; Greco et al., Methods Mol Biol 1410:39-63, 2016; Federspiel & Cristea, Methods Mol Biol., 1977:115-143, 2019).
Peptides (1.0 μg on column) were analyzed by LC-MS/MS using a Dionex Ultimate 3000 UHPLC coupled online to an EASYSpray ion source and a Q Exactive HF. Peptides were separated on an EASYSpray C18 column (75 μm×25 cm) heated to 50° C. using a linear gradient of 5% B to 32% B over 60 min at a flow rate of 250 nL/min and were ionized at 1.7 kv. Mobile phase A consisted of 0.1% FA in H2O and mobile phase B consisted of 0.1% FA, 2.9% H2O in ACN.
The PRM method was controlled by a peptide inclusion list with retention time windows of 6 min for selected precursor ions.
The PRM assay was developed and analyzed using the open-source software Skyline (Maclean et al., Bioinformatics 26(7):966-968, 2010). Summed area under the curve of 3-4 transitions per peptide was used for quantitation. Targeted peptides were normalized to host protein loading control peptides. Peptide values for each sample were scaled to the average of each peptide across all runs. The average of multiple peptides was used as the inferred value for the protein measurement when more than one peptide was quantified (Federspiel et al., PLoS Biol. 17(9):e3000437. Doi: 10.1371/journal.pbio.3000437). PRM quantitation data were graphed using the Python Seaborn and Matplotlib libraries.
MRC5 primary human fibroblasts (HFs) (ATCC CCL-171) were used as the model system for HSV-1 and HCMV infections and were cultured in complete growth medium (DMEM supplemented with 10% fetal bovine serum and 1% penicillin-streptomycin antibiotics) at 37° C. and 5% CO2. iSLK.219 cells harboring latent KSHV (a gift from Dr. Britt Glaunsinger, University of California, Berkeley) were grown in complete growth medium supplemented with 500 μg/ml hygromycin (ThermoFisher Scientific, 10687010) at 37° C. and 5% CO2. All cells were used for experiments within a maximum of 10 passages.
Wild type HSV-1 strain 17+ (a gift from Beate Sodeik, Hannover Medical School, Hannover, Germany) was propagated as previously described (Diner et al., 2015). Briefly, PO stocks were generated by electroporating pBAC-HSV-1 into U-2 OS cells. […] In a similar manner, wild type HCMV strain AD169 was produced from BAC electroporation into HFs and working stocks were propagated by infecting HFs at a low level. In both cases, cell-associated virus was released by sonication, combined with supernatant virus, then concentrated by ultracentrifugation (20,000 rpm, 2 hours, 4° C. with SW28 swinging bucket rotor [Beckman Coulter]) over a 10% ficoll (HSV-1) or 20% sorbitol (HCMV) cushion. Virus stock titers were determined by plaque assay for HSV-1 or tissue culture infectious dose (TCID50) for HCMV and infections were performed at a multiplicity of infection (MOI) of 3.
12 hours prior to virus infection or reactivation, cells were treated with either the small molecule drug or DMSO/PBS control at an equivalent volume. […] For infection cycles lasting longer than 24 hours, small molecule drugs were re-added to the cell culture medium every 24 hours. Upon collection, cells were rinsed with PBS, scraped into a microcentrifuge tube, pelleted by centrifugation, and rinsed again with PBS.

Nc1c(S(=O)(=O)c2ccccc2)c2nc3ccccc3nc2n1-c1ccc(F)cc1 [CAY10602]
UL102 (P16827) protein level (timepoint 48, DE): 0.7866 | UL104 (P16735) protein level (timepoint 48, DE): 0.07399 | UL112/UL113 (P17151) protein level (timepoint 48, DE): 0.423 | UL114 (P16769) protein level (timepoint 48, DE): 0.7709 | UL119/UL118 (P16739) protein level (timepoint 48, DE): 0.3402 | UL128 (P16837) protein level (timepoint 48, DE): 0.06729 | US8 (P09730) protein level (timepoint 48, DE): 0.8905 | US9 (P09729) protein level (timepoint 48, DE): 0.6117 | US12 (P09721) protein level (timepoint 48, DE): 0.9446 | US13 (P09720) protein level (timepoint 48, DE): 0.9123 | US14 (P09719) protein level (timepoint 48, DE): 0.1589 | US18 (P69334) protein level (timepoint 48, DE): 0.5367 | US22 (P09722) protein level (timepoint 48, DE): 0.542 | US23 (P09701) protein level (timepoint 48, DE): 0.4283 | US24 (P09700) protein level (timepoint 48, DE): 0.42 | US34 (P09709) protein level (timepoint 48, DE): 0.4118 | gB (P06473) protein level (timepoint 48, DE): 0.09671 | IRS1 (P09715) protein level (timepoint 48): 0.5813 | TRS1 (P09695) protein level (timepoint 48): 0.446 | UL13 (P16755) protein level (timepoint 48): 0.4405 | UL36 (P16767) protein level (timepoint 48): 0.9117 | UL37 (P16778) protein level (timepoint 48): 0.7557 | UL122 (P19893) protein level (timepoint 48): 0.05121 | UL123 (P13202) protein level (timepoint 48): 0.5672 | CVC1 (P16799) protein level (timepoint 48, L): 0.1115 | IR11 (P16809) protein level (timepoint 48, L): 0.3707 | MCP (P16729) protein level (timepoint 48, L): 0.006609 | SCP (Q7M6N6) protein level (timepoint 48, L): 0.004793 | TRM2 (P16792) protein level (timepoint 48, L): 0.05665 | UL22A (P16845) protein level (timepoint 48, L): 0.1015 | UL25 (P16761) protein level (timepoint 48, L): 0.0624 | UL29 (P16764) protein level (timepoint 48, L): 0.7556 | UL30 (P16765) protein level (timepoint 48, L): 0.1538 | UL31 (P16848) protein level (timepoint 48, L): 0.1445 | UL43 (P16781) protein level (timepoint 48, L): 0.04992 | UL52 (P16793) protein level (timepoint 48, L): 0.05111 | UL80 (P16753) protein level (timepoint 48, L): 0.03588 | UL82 (P06726) protein level (timepoint 48, L): 0.1061 | UL88 (P16731) protein level (timepoint 48, L): 0.08754 | UL94 (P16800) protein level (timepoint 48, L): 0.07429 | UL99 (P13200) protein level (timepoint 48, L): 0.05165 | UL103 (P16734) protein level (timepoint 48, L): 0.1567 | UL117 (P16770) protein level (timepoint 48, L): 0.383 | gH (P12824) protein level (timepoint 48, L): 0.06336 | gL (P16832) protein level (timepoint 48, L): 0.05192 | gM (P16733) protein level (timepoint 48, L): 0.02415 | gN (P16795) protein level (timepoint 48, L): 0.1118 | DUT (P16824) protein level (timepoint 48, LL): 0.2582 | IR12 (P16810) protein level (timepoint 48, LL): 0.2908 | TRM3 (P16732) protein level (timepoint 48, LL): 0.01695 | TRX1 (P16783) protein level (timepoint 48, LL): 0.006112 | TRX2 (P16728) protein level (timepoint 48, LL): 0.006041 | UL24 (P16760) protein level (timepoint 48, LL): 0.1155 | UL40 (P16780) protein level (timepoint 48, LL): 0.63 | UL47 (P16784) protein level (timepoint 48, LL): 0.02023 | UL49 (P16786) protein level (timepoint 48, LL): 0.187 | UL69 (P16749) protein level (timepoint 48, LL): 0.1615 | UL70 (P17149) protein level (timepoint 48, LL): 0.3937 | UL83 (P06725) protein level (timepoint 48, LL): 0.02048 | UL132 (P69338) protein level (timepoint 48, LL): 0.09662 | US15 (P09718) protein level (timepoint 48, LL): 0.5168 | CVC2 (P16726) protein level (timepoint 72, DE): 0.03983 | DBP (P17147) protein level (timepoint 72, DE): 0.391 | HELI (P16736) protein level (timepoint 72, DE): 0.5709 | IR01 (P09710) protein level (timepoint 72, DE): 0.2588 | NEC2 (P16791) protein level (timepoint 72, DE): 0.11 | RIR1 (P16782) protein level (timepoint 72, DE): 0.1099 | TRM1 (P16724) protein level (timepoint 72, DE): 0.1317 | UL4 (P17146) protein level (timepoint 72, DE): 0.06765 | UL26 (P16762) protein level (timepoint 72, DE): 0.1023 | UL32 (P08318) protein level (timepoint 72, DE): 0.02678 | UL34 (P16812) protein level (timepoint 72, DE): 0.09048 | UL35 (P16766) protein level (timepoint 72, DE): 0.02871 | UL38 (P16779) protein level (timepoint 72, DE): 0.5839 | UL44 (P16790) protein level (timepoint 72, DE): 0.07887 | UL48 (P16785) protein level (timepoint 72, DE): 0.0801 | UL54 (P08546) protein level (timepoint 72, DE): 0.6639 | UL71 (P16823) protein level (timepoint 72, DE): 0.3054 | UL78 (P16751) protein level (timepoint 72, DE): 0.3616 | UL84 (P16727) protein level (timepoint 72, DE): 0.08785 | UL95 (P16801) protein level (timepoint 72, DE): 0.157 | UL96 (P16787) protein level (timepoint 72, DE): 0.2632 | UL97 (P16788) protein level (timepoint 72, DE): 0.1687 | UL98 (P16789) protein level (timepoint 72, DE): 0.2967 | UL102 (P16827) protein level (timepoint 72, DE): 0.7626 | UL104 (P16735) protein level (timepoint 72, DE): 0.1005 | UL112/UL113 (P17151) protein level (timepoint 72, DE): 0.3808 | UL114 (P16769) protein level (timepoint 72, DE): 0.6517 | UL119/UL118 (P16739) protein level (timepoint 72, DE): 0.4195 | UL128 (P16837) protein level (timepoint 72, DE): 0.04728 | US8 (P09730) protein level (timepoint 72, DE): 0.5794 | US9 (P09729) protein level (timepoint 72, DE): 0.5649 | US12 (P09721) protein level (timepoint 72, DE): 0.4239 | US13 (P09720) protein level (timepoint 72, DE): 0.5351 | US14 (P09719) protein level (timepoint 72, DE): 0.1559 | US18 (P69334) protein level (timepoint 72, DE): 0.5415 | US22 (P09722) protein level (timepoint 72, DE): 0.4813 | US23 (P09701) protein level (timepoint 72, DE): 0.3933 | US24 (P09700) protein level (timepoint 72, DE): 0.3114 | US34 (P09709) protein level (timepoint 72, DE): 0.2066 | gB (P06473) protein level (timepoint 72, DE): 0.1022 | IRS1 (P09715) protein level (timepoint 72): 0.5625 | TRS1 (P09695) protein level (timepoint 72): 0.5284 | UL13 (P16755) protein level (timepoint 72): 0.3604 | UL36 (P16767) protein level (timepoint 72): 0.601 | UL37 (P16778) protein level (timepoint 72): 0.719 | UL122 (P19893) protein level (timepoint 72): 0.05427 | UL123 (P13202) protein level (timepoint 72): 0.4451 | CVC1 (P16799) protein level (timepoint 72, L): 0.09678
